For series [1] the following is noted: intratumoral; 40 patients with advanced metastatic solid tumors or lymphomas; cited from earlier work.
Series [2] deals with mammary glands of BRCA1-deficient mice. Kind of series: Cancer biomarkers (PCNA, γ-H2AX) in mammary glands of BRCA1-deficient mice. It is filed as in vivo. The settings on record: mammary glands harvested 4 weeks after treatment. On the procedure: InCeT-TLZ favorably alters cancer biomarkers compared with systemic administration or empty implants. Mammary glands were harvested 4 weeks after BRCA1-deficient mice were treated with implants (InCeT-TLZ or empty InCeT) or free TLZ. As shown in, over half of the epithelial cells in the mammary glands of mice treated with empty InCeT were positive for PCNA, confirming robust proliferation.

A short description of series [3]: Blood cell count with Procyte Dx Analyzer after oral TLZ. It is filed as in vivo. The conditions noted are these: BRCA−/− breast cancer mice, indicative of bone marrow toxicity. The text has this:
PARPi have been limited due to induction of bone marrow toxicity.

In series [4] the test system is BRCA−/− model with conditional BRCA1/2, PTEN, and TP53 deletions (mFT3666). Kind of series: Survival in BRCA−/− mOC model (mFT3666). It is filed as in vivo, mice. The conditions noted are these: free TLZ; control ~57 days. The procedure:
Sustained PARP inhibition doubles survival in BRCA^−/− mOC model. Therapeutic efficacy was tested in vivo in a BRCA^−/− model with conditional BRCA1/2, PTEN, and TP53 deletions (mFT3666) that mimics late stage disseminated disease. Free TLZ slowed disease progression and extended median survival to ˜70 days, compared with control (˜57 days). These animals eventually developed severe ascites and had to be sacrificed. A InCeT-TLZ implant loaded with 50 μg of TLZ was injected into the peritoneal cavity using an 18 gauge needle every 25 days. Most of the InCeT-TLZ group of animals survived until 93 days, with some developing ascites.

For series [5] the following is noted: EMBRACA, cited from earlier work.
Series [6] concerns Brca2−/−p53−/−R172H Pten−/− intraperitoneal disseminated metastatic ovarian cancer model. Kind of series: Survival in intraperitoneal disseminated metastatic ovarian cancer model. The format is in vivo. The settings on record: i.p.; 50 μg TLZ over 21 days (implant or equivalent dose by periodic injections). On the procedure:
In a Brca2^−/−p53^−/−R172H Pten^−/− intraperitoneal disseminated metastatic ovarian cancer model, SMAART-TLZ i.p implants (50 μg TLZ release over 21 days) increased median survival to 92 days compared to periodic i.p injections of TLZ at the equivalent drug dose over 21 days (70 days median OS-FIG. 6A).

Series [7] relates to TNBC. The settings on record: cited from earlier work.

Molecules are shown by their SMILES.

We go through 3 molecules from patent US20250367111A1, “DELIVERY OF SUSTAINED LOCAL AND SYSTEMIC IMMUNOMODULATION” (Northeastern University, priority 2024, published 2025).

`Nc1ncnc2c1ncn2[C@@H]1O[C@@H]2COP(=O)([S-])O[C@@H]3[C@H](O)[C@@H](COP([O-])(=S)O[C@H]2[C@H]1O)O[C@H]3n1cnc2c(N)ncnc21.[Na+].[Na+]` (stereo partly shown) [ADU-S100]: the dose-limiting toxicities result in series [1] was “no dose-limiting toxicities”.

As for `Cn1ncnc1[C@H]1c2n[nH]c(=O)c3cc(F)cc(c23)N[C@@H]1c1ccc(F)cc1` [TLZ, Talazoparib], the “reduction of PCNA+ cells” value in series [2] is on record as roughly 50%. For the same molecule, the γ-H2AX expression result in series [2] is “but not free TLZ increased γ-H2AX expression”. The red blood cells entry in series [3] is reported as “decrease in red blood cells”. Further, the median survival in series [4] is roughly 70 days; in series [6] it was 70 days. The “patients with adverse events” value in series [5] is 65%. The “patients with adverse events needing dose reduction below the therapeutic level” value in series [5] (of those patients) is on record as 53%.

As for `O=C(c1cc(Cc2n[nH]c(=O)c3ccccc23)ccc1F)N1CCN(C(=O)C2CC2)CC1` [olaparib], in series [7] (human, in vivo), the “overall response rate (ORR)” value is listed as 59.9%. In series [7] (vs. 4.2 months standard chemotherapy), the “progression-free survival (PFS)” value is 7 months.
